Source: patent publication US6949533B2, “6,7-Oxygenated steroids and uses related thereto” (Inflazyme Pharmaceuticals Ltd., priority 1996, dated 2005)
Like-named read-outs stand apart in the source and are kept apart here.

Tests used:
[1] = test system: guinea pig ileum; assay: antigen-induced contraction of ileum from sensitized guinea pigs; conditions: Cavia porcellus, read-out: Percentage Inhibition, 30 μM compound, n = 3-4
Protocol: The ability of compounds to inhibit allergen-induced contraction of ileum from sensitized animals is indicative of antiallergic activity. Sensitized guinea pig ileum is particularly useful in measuring the immediate allergic response.
The guinea pig ileum has been used to evaluate the ability of compounds to inhibit allergan-induced histamine and mediator release causing smooth muscle contraction. Guinea pigs were sensitized by an intraperitoneal injection of 100 mg ovalbumin and an intramuscular injection of 50 mg ovalbumin on day 0, followed by a second intramuscular injection of 50 mg ovalbumin on day 1. […] Segments of ileum were prepared and suspended, with muscle contractions being measured in the longitudinal plane, in Tyrode's buffer at 37° C. and aerated with 5% CO2 in O2. Tissues were suspended under a resting tension of 2 grams and isometric contractions were measured using force-displacement transducers coupled to a polygraph. Tissues were stimulated with 3 μM histamine 3 times to ensure reproducible contractions were obtained. Tissues were then incubated with each compound (30 μM) or 0.15% dimethylsulphoxide (DMSO) as a control, for 20 min, after which time the tissues were challenged with 100 μg/ml ovalbumin. The magnitude of the contraction induced by OA in the presence of each compound was expressed as a percentage of the contraction obtained to 3 μM histamine. The protective effects of the various compounds on OA-induced contraction of guinea pig ileum from sensitized animals are summarized in Table 4.

[2] = test system: passively sensitized rat mast cells (RBL-2H3); assay: antigen-induced release of hexosaminidase from RBL-2H3 cells; assay type: cell-based; conditions: for inhibition at 25 µM: Rattus norvegicus
Protocol: (§1) The anti-allergic effects of various polyhydroxylated steroids of the present invention were evaluated by measuring their effect on antigen-induced secretion of hexosaminidase from a passively sensitized rat mast cell line (RBL-2H3) and a murine mast cell line (MC/9). The ability of agents to inhibit the release of mast cell granule contents, e.g., histamine and hexosaminidase, is indicative of anti-allergy and/or anti-asthma activity.
(§2) Hexosaminidase is released from the mast cell granule along with histamine and other mediators during antigen challenge. RBL-2H3 and MC/9 cells were grown in culture and passively sensitized to dinitrophenol (DNP) using anti-human-DNP (IgE). Cells were incubated with each compound (25 μM) for 1 hour at 37° C. and then stimulated with 0.1 mg/ml DNP-HSA (antigen) for 15 min. Aliquots of the supernatant were removed and used to measure the amount of hexosaminidase released during challenge with the antigen. The amount of hexosaminidase present in the supernatant was determined calorimetrically by monitoring the enzymatic metabolism of p-nitrophenyl-N-acetyl-β-D-glucosaminide (p-NAG) over a period of 1 hour at 410 nm. The effect of each compound was determined as a percentage of the antigen-induced response (minus background release) obtained in the presence of DMSO alone, as set forth in Tables 2 and 3. These values were used to determine the degrees of inhibition of antigen-induced hexosaminidase release from the cells.

[3] = test system: isolated trachea; parameters: species or system guinea pig; conditions: compound 20 μM, study 2
Protocol: The effects of a number of the compounds described herein on allergen-induced bronchoconstriction were evaluated for anti-asthma activity. The ability of a compound to inhibit allergen-induced decreases in lung function in sensitized guinea pigs in response to antigen-challenge is indicative of anti-asthma activity. In particular, the model system is useful in the evaluation of the potential effects of a compound in the treatment of the early asthmatic reaction (EAR) when severe bronchoconstriction occurs.
Guinea pigs were exposed to a nebulized solution of 1% ovalbumin (OA) in saline for 15 min. […] Tracheal rings were prepared and bathed in Krebs-Henseleit solution at 37° C. and aerated with 5% CO2 in […]. Tissues were suspended under a resting tension of 2 g and isometric contractions were measured using force-displacement transducers coupled to a polygraph. Tissues were incubated with each compound or 0.1% dimethylsulfoxide (as a control) for 20 min, after which increasing concentrations of OA (0.001-100 μg/ml) were added to the tissue. After the final concentration of OA was added and the response was recorded, the tissues were stimulated with 100 μM methacholine which caused maximum contraction of the trachea. The magnitude of the contraction induced by OA in the presence of each compound was expressed as a percentage of the maximum contraction obtained using methacholine (100 μM).

[4] = test system: mouse mast cells (MC/9); assay: antigen-induced release of hexosaminidase from MC/9 cells; assay type: cell-based; conditions: for inhibition at 25 µM: Mus musculus, MC9, 25 μM compound, read-out: Percentage Inhibition (mean) MC/9 cells
Protocol: as §1, §2

[5] = test system: sensitized guinea pigs; assay: allergen-induced changes in lung resistance and compliance in vivo; parameters: species or system guinea pig; conditions: 5 mg/kg/day for 4 days p.o.
Protocol: Female Cam Hartley guinea pigs (350-400 g) are sensitized to ovalbumin by exposure of the guinea pigs to a nebulized solution of 1% ovalbumin in saline for 15 minutes. After 10-12 days, the animals are found to be acutely sensitized to the allergen (ovalbumin). Animals are treated by oral gavage, under light halothane anesthesia, with 300 μl polyethyleneglycol-200 (PEG) or 5 mg/Kg of test compound in 300 μl of PEG. Animals are treated once daily for 4 days with the final dose administered 2 hours prior to allergen challenge. Alternatively, compounds were delivered by inhalation, using a Hudson nebulizer driven by 6 psi oxygen, providing a single dose of 50 μg/Kg 20 min prior to challenge.
An animal is anaesthetized using ketamine ([…]; i.p.) and xylazine (10 mg/Kg; i.p.) and 1% halothane during the surgical procedure. A tracheostomy is performed and a water-filled esophageal cannula is inserted prior to positioning the animal in a body plethysmograph. The tracheal cannula is attached to a fixed tracheal cannula in the plethysmograph. Cardiac function is monitored using electrocardiography. The animal is paralyzed using pancuronium bromide (0.8 mg/Kg; i.m.) and ventilated with 3 ml tidal breaths using a Harvard small animal ventilator, at a frequency of 60 breaths per minute. Pulmonary resistance and dynamic lung compliance data are obtained from volume, flow and transpulmonary pressure signals using multipoint analysis.
Pulmonary function is continually monitored throughout the experiment and measurements of lung resistance and lung compliance are made at various time-points (e.g., 0, 1, 2, 3, 4, 5, 10, 20 and 30 min) following antigen challenge. Data is collected on a computer-linked physiological measurement system using DIREC Physiological recording software and analyzed using ANADAT software designed for lung mechanics measurements. This software was obtained from RHT-InfoDat Inc., Montreal, Quebec, Canada.
Once baseline resistance and compliance measurements are obtained, the animal is challenged with 6 breaths of saline. After 10 minutes, during which time no alterations in lung function should occur, the animal is challenged with 6 breaths of 2 or 3% ovalbumin in saline (as the antigen stimulus). Saline and antigen are delivered in each breath using a Hudson nebulizer.

[6] = RBL-2H3, read-out: Percentage Inhibition (mean) RBL-2H3 Cells
[7] = RBL-2H3, 25 μM compound, antigen-induced hexosaminidase release, read-out: Percentage Inhibition (mean) RBL-2H3 Cells

CC(C)(C)[Si](C)(C)OC1CC[C@]2(C)C3CC[C@@]4(C)C(CCC45OCCO5)C3[C@@H](O)[C@H](O)C2C1 (stereo partly drawn) [Compound 221]
inhibition at 30 µM [1]: 60.7%

C[C@]12CC[C@H]3O[C@H]3[C@@H]1[C@@H](O)[C@H](O)[C@@H]1[C@@H]2CC[C@]2(C)[C@@H](O)CC[C@@H]12 [Compound 239, 3α,4α-epoxy-6α,7β,17β-trihydroxy-5α-androstane]
inhibition at 25 µM [2, 6]: 9.6%

C[C@]12CC[C@@H](O)[C@H](O)[C@@H]1[C@@H](O)[C@H](O)[C@@H]1[C@@H]2CC[C@]2(C)[C@@H](O)CC[C@@H]12 [Compound 241, 3α,4β,6α,7β,17β-pentahydroxy-5α-androstane]
inhibition at 25 µM [2, 6]: 22%

C/C=C1/CCC2C3CCC4C[C@@H](O)CC[C@]4(C)C3CC[C@]12C (stereo partly drawn) [Compound 251]
inhibition at 30 µM [1]: -10.5%

CC(C)[C@H]1CC(=O)OC([C@@H](C)C2CC(=O)C3C4CCC5C[C@@H](O)CC[C@]5(C)C4CC[C@@]32C)C1 (stereo partly drawn) [Compound 266]
inhibition at 25 µM [2, 7]: -12.5%
inhibition at 30 µM [1]: 17.4%

CC(C)C1CC(O)OC(C(C)C2CCC3C4C(CC[C@]23C)[C@@]2(C)CC[C@@H](O)CC2[C@@H](O)[C@@H]4O)C1 (stereo partly drawn) [Compound 306, 22,29-epoxy-3,6,7,29-tetrahydroxystigmastanol]
inhibition at 25 µM [2, 7]: 40.5%

CC(=O)O[C@@H]1C2C(CC[C@@]3(C)C2CCC32OCCO2)[C@@]2(C)CC[C@H](O)CC2[C@H]1OC(C)=O (stereo partly drawn) [Compound 322]
inhibition at 25 µM [2, 7]: 25.6%

C[C@]12CC[C@@H](O)C[C@@H]1[C@@H](O)[C@H](O)[C@@H]1[C@@H]2CC[C@]2(C)C(=O)CC[C@@H]12 [Compound 326]
percentage contraction compared to 100 μM methacholine ([3]; OA 0.01 μg/ml): 0%

C[C@]12CC[C@@H](O)C[C@@H]1[C@@H](O)[C@H](O)[C@@H]1[C@@H]2CC[C@]2(C)[C@@H](O)CC[C@@H]12 [Compound 327]
inhibition at 25 µM [2, 6]: 35.2%
percentage contraction compared to 100 μM methacholine ([3]; OA 0.01 μg/ml): 0%
percentage contraction compared to 100 μM methacholine ([3]; OA 0.1 μg/ml): 0%

C[C@]12CC[C@H](O)CC1[C@@H](O)[C@H](O)C1C2CC[C@@]2(C)C1CCC21OCCO1 (stereo partly drawn) [Compound 328]
inhibition at 25 µM [2, 7]: 34.3%

CC1(C)O[C@@H]2C3C(CC[C@]4(C)C(=O)CCC34)[C@@]3(C)CC[C@H](O)CC3[C@H]2O1 (stereo partly drawn) [Compound 331]
inhibition at 25 µM [4]: 5%
inhibition at 30 µM [1]: 14.5%

C/C=C1/CCC2C3C(CC[C@]12C)[C@@]1(C)CCC(=O)CC1[C@@H](O)[C@@H]3O (stereo partly drawn) [Compound 335]
inhibition at 25 µM [2, 7]: 56%
inhibition at 25 µM [4]: 69%
inhibition at 30 µM [1]: 30.7%

C/C=C1/CCC2C3C(CC[C@]12C)[C@@]1(C)CC[C@@H](Cl)CC1[C@H]1OC(C)(C)O[C@H]31 (stereo partly drawn) [Compound 336]
inhibition at 30 µM [1]: 79.3%

C/C=C1/CCC2C3C(CC[C@]12C)[C@@]1(C)CC[C@@H](Cl)CC1[C@@H](O)[C@@H]3O (stereo partly drawn) [Compound 337]
inhibition at 25 µM [2, 7]: 44%
inhibition at 25 µM [4]: 56%
inhibition at 30 µM [1]: 50.7%

C/C=C1/CCC2C3C(CC[C@]12C)[C@@]1(C)CC[C@@H](O)CC1[C@H]1OC(C)(C)O[C@H]31 (stereo partly drawn) [Compound 338]
inhibition at 30 µM [1]: 64%

C=C1CCC2C3C(CC[C@]12C)[C@@]1(C)CC[C@H](O)CC1[C@@H](O)[C@@H]3O (stereo partly drawn) [Compound 342]
inhibition at 25 µM [2, 7]: 57%
inhibition at 25 µM [4]: 39%
inhibition at 30 µM [1]: 28.3%
Lung Compliance ([5]; 1 min after challenge): 0.154 ± 0.055 ml/cm H2O
Lung Resistance ([5]; 1 min after challenge): 0.453 ± 0.120 cm H2O/ml/sec
Lung Compliance ([5]; 2 min after challenge): 0.073 ± 0.038 ml/cm H2O
Lung Resistance ([5]; 2 min after challenge): 1.786 ± 0.82 cm H2O/ml/sec
Lung Compliance ([5]; 3 min after challenge): 0.044 ± 0.022 ml/cm H2O
Lung Resistance ([5]; 3 min after challenge): 1.930 ± 0.55 cm H2O/ml/sec
Lung Compliance ([5]; 4 min after challenge): 0.044 ± 0.022 ml/cm H2O
Lung Resistance ([5]; 4 min after challenge): 1.621 ± 0.36 cm H2O/ml/sec
Lung Compliance ([5]; 5 min after challenge): 0.038 ± 0.015 ml/cm H2O
Lung Resistance ([5]; 5 min after challenge): 1.4816 ± 0.32 cm H2O/ml/sec
Lung Compliance ([5]; 10 min after challenge): 0.048 ± 0.005 ml/cm H2O
Lung Resistance ([5]; 10 min after challenge): 1.002 ± 0.14 cm H2O/ml/sec
Lung Compliance ([5]; 20 min after challenge): 0.084 ± 0.005 ml/cm H2O
Lung Resistance ([5]; 20 min after challenge): 0.524 ± 0.08 cm H2O/ml/sec
Lung Compliance ([5]; 30 min after challenge): 0.109 ± 0.006 ml/cm H2O
Lung Resistance ([5]; 30 min after challenge): 0.354 ± 0.04 cm H2O/ml/sec
Lung Compliance ([5]; Baseline): 0.444 ± 0.037 ml/cm H2O
Lung Resistance ([5]; Baseline): 0.212 ± 0.020 cm H2O/ml/sec
Lung Compliance ([5]; OA/10 s): 0.464 ± 0.031 ml/cm H2O
Lung Resistance ([5]; OA/10 s): 0.223 ± 0.020 cm H2O/ml/sec

C[C@H]1CCC2C3C(CC[C@@]21C)[C@@]1(C)CC[C@H](O)CC1[C@@H](O)[C@@H]3O (stereo partly drawn) [Compound 343]
inhibition at 25 µM [2, 7]: 52%
inhibition at 25 µM [4]: 40%
inhibition at 30 µM [1]: 48.9%

C/C=C1/CCC2C3C(CC[C@]12C)[C@@]1(C)CCCCC1[C@@H](O)[C@@H]3O (stereo partly drawn) [Compound 346]
inhibition at 25 µM [2, 7]: 16%
inhibition at 25 µM [4]: 61%
inhibition at 30 µM [1]: 62.5%

C[C@@]12CCCC1C1C(CC2)[C@@]2(C)CC[C@H](O)CC2[C@@H](O)[C@@H]1O (stereo partly drawn) [Compound 351]
inhibition at 25 µM [2, 7]: 33.6%
inhibition at 30 µM [1]: 43.6%

CC(C)CCCC(C)C1CCC2C3C(O)C(O)C4CC(O)CCC4(C)C3CCC12C (stereo not drawn) [Compound 354]
Percentage Inhibition (mean) RBL-2H3 Cells ([2]; 25 μM compound, antigen-induced hexosaminidase release): 30%
Percentage Inhibition (mean) MC/9 cells ([4]; 25 μM compound): 76%

CC[C@H]1CCC2C3C(CC[C@@]21C)[C@@]1(C)C[C@@H](O)C(O)CC1[C@@H](O)[C@@H]3O (stereo partly drawn) [Compound 360]
inhibition at 25 µM [2, 7]: 76%
inhibition at 30 µM [1]: 50.5%

CC[C@H]1CCC2C3C(CC[C@@]21C)[C@@]1(C)CC[C@@H](O)CC1[C@H]1OC(C)(C)O[C@H]31 (stereo partly drawn) [Compound 361]
inhibition at 25 µM [4]: 13%
inhibition at 30 µM [1]: 55%
